The subject of the assay is MT4. Briefly: Tested for inhibitory activity against HIV in whole cell assay (MT-4, RF strain of HIV-1) at a 100 ug/ ml); Inactive and Not toxic. Format: functional, cell-based. Particulars: Homo sapiens.
With `Cc1cn(N2CCC(CO)C2)c(=O)[nH]c1=O` (stereo not drawn), the Activity result was “Non-toxic”.
As to `Nc1ccn(N2CCC(CO)C2)c(=O)n1` (stereo not drawn), the Activity entry is “Non-toxic”.
With `O=c1ccn(N2CCC(CO)C2)c(=O)[nH]1` (stereo not drawn), the Activity result is “Non-toxic”.
